{"source": "patent US12583889B2", "about": "“Cell penetrating peptides” (Oxford University Innovation Limited, priority 2017, dated 2026)", "key": {"[1]": {"tested_on": "SMN2 exon 7 inclusion in GM03813 SMA patient fibroblasts", "test": "Cell screening of peptide-PMO conjugates for SMN2 exon 7 inclusion in human SMA patient fibroblast cell culture", "format": "cell-based", "settings": "for cell activity (SMN2 exon 7 inclusion): second screen, FIG. 5, qPCR; for cell activity (SMN2 exon 7 inclusion) / cell activity (SMN2 exon 7 inclusion) relative to peptide 14: 667 nM and 2 μM; for cell activity (SMN2 exon 7 inclusion) relative to peptide 14: first screen, FIG. 4, qPCR; for cell activity (SMN2 exon 7 inclusion) relative to S* peptide: FIG. 6, 4 μM, 2 μM, 1 μM, 500 nM, 250 nM", "procedure": "In order to generate further peptide candidates containing a glycosylated Serine residue for in vivo evaluation, the inventors synthesized a range of similarly glycosylated peptides, conjugated them to the same PMO therapeutic and screened the resultant P-PMO conjugates in human SMA patient fibroblast cell culture, which assesses their ability to enter cell nuclei to give exon inclusion.\nGM03813 (Coriell Institute) derived from SMA type I patient fibroblast were seeded out at 2500 cells/well in 100 μl Dulbecco's modified Eagle's medium (DMEM) with GlutaMAX and 5% fetal bovine serum (FBS) (Life Technologies, Inc.) in 96 well plates, and incubated for 16 h in a cell culture incubator (37° C., 5% CO2, 100% rel. humidity). On the next day cells were then treated with 10 μl P-PMO at different concentrations (in water) in duplicate for 24 hours. After removal of the supernatant, cells were washed once with PBS-buffer and were lysed in lysis buffer (10 mM Tris, 3 mM MgCl2, 1 mM CaCl2), 1% Triton X-100, 200 u/ml DNase I and 200 u/ml Proteinase K) for 10 min. Afterwards the lysate were transferred into a 96-well plate (Eppendorf twintec) and incubated at 75° C. for 15 min and subsequently cooled to 4° C. and used immediately. The mRNA levels of SMN2 FL, SMN2 Δ7 and GAPDH were quantified using Taqman-based qRT-PCR (Superscript® III Platinium® One Step qRT-PCR, Thermo Fisher) and SMN2 specific Primers and probes (purchased from IDT Integrated DNA Technologies). (19) SMN2 FL and Δ7 mRNAs were normalized to GAPDH. […]"}, "human SMN2-gene": {"tested_on": "human SMN2-gene", "test": "Full-length SMN2 transcript qPCR in tissues of adult SMA mice after intravenous peptide-PMO conjugate", "format": "in vivo", "settings": "adult SMA mice, 2x15 mg/kg IV approx. 48 hours apart, tissue 7 days post final administration, normalised to saline treated controls; for full-length SMN2 transcripts, mean expression level, Brainstem / full-length SMN2 transcripts, mean expression level, Cerebellum / full-length SMN2 transcripts, mean expression level, Cortex: Central Nervous System; for full-length SMN2 transcripts, mean expression level, Liver: Off Target; for full-length SMN2 transcripts, mean expression level, Gastroc: Skeletal Muscle (gastrocnemius); for full-length SMN2 transcripts, mean expression level, Quad: Skeletal Muscle (quadriceps); for full-length SMN2 transcripts, mean expression level, TA: Skeletal Muscle (tibialis anterior); for full-length SMN2 transcripts, mean expression level, Cervical / full-length SMN2 transcripts, mean expression level, Lumbar / full-length SMN2 transcripts, mean expression level, Thoracic: spinal cord", "excerpt": "Smn1tm1Hung/wt; […]; […] Tissues were harvested one week post administration. […] Statistical significance determined by Student'[…]≤0.00005. […] ID NO.151), Exons 7-8 Rev: [NT] ID NO.152). […] [NT] ID NO.154). […] PolJ Forward: [NT] ID NO.155); PolJ Reverse: [NT]"}}, "note": "Marks after values point to notes of the source that are not given here.", "data": [{"substance": "Ac-RBRBRS*RBRBR-G [Peptide 70]", "values": [{"measurement": "cell activity (SMN2 exon 7 inclusion)", "setting": "[1]", "result": "remarkably good activity"}]}, {"substance": "Ac-RBRRBRRBR S*FL RBRBRBR-G [Peptide 18]", "values": [{"measurement": "cell activity (SMN2 exon 7 inclusion) relative to peptide 14", "setting": "[1]", "result": "no significant effect on cell activity"}]}, {"substance": "Ac-RBRRBRRBRS*FLRBRBR-G [Peptide 29]", "values": [{"measurement": "cell activity (SMN2 exon 7 inclusion) relative to peptide 14", "setting": "[1]", "result": "less active than the first peptide 14"}]}, {"substance": "Ac-RBRRBRRBRS*FLRBRBRR-G [Peptide 33]", "values": [{"measurement": "cell activity (SMN2 exon 7 inclusion) relative to peptide 14", "setting": "[1]", "result": "without a large loss in cell activity"}]}, {"substance": "Ac-RBRRBRRBRS*FLRBRRR-G [Peptide 34]", "values": [{"measurement": "cell activity (SMN2 exon 7 inclusion) relative to peptide 14", "setting": "[1]", "result": "without a large loss in cell activity"}]}, {"substance": "Ac-RBRRBRRRS*FLRBRBRBR-G [Peptide 36]", "values": [{"measurement": "cell activity (SMN2 exon 7 inclusion) relative to peptide 14", "setting": "[1]", "result": "without a large loss in cell activity"}]}, {"substance": "Ac-RBRRRRRS*FLRBRBRBR-G [Peptide 37]", "values": [{"measurement": "cell activity (SMN2 exon 7 inclusion) relative to peptide 14", "setting": "[1]", "result": "without a large loss in cell activity"}]}, {"substance": "Ac-RRBRRBRS*FLRBRBRBR-G [Peptide 24]", "values": [{"measurement": "cell activity (SMN2 exon 7 inclusion) relative to peptide 14", "setting": "[1]", "result": "less active than the first peptide 14"}]}, {"substance": "Ac-RRBRS*FLRBRBRBR-G [Peptide 26]", "values": [{"measurement": "cell activity (SMN2 exon 7 inclusion) relative to peptide 14", "setting": "[1]", "result": "slightly less active only"}]}, {"substance": "Ac-RS*RRBRRBRBRXR-G [Peptide 59]", "values": [{"measurement": "cell activity (SMN2 exon 7 inclusion)", "setting": "[1]", "result": "no significant alteration in activity levels"}]}, {"substance": "Ac-RXRRBRRFS^1*RBRXR-B [Peptide 74]", "values": [{"measurement": "cell activity (SMN2 exon 7 inclusion) relative to S* peptide", "setting": "[1]; third screen", "result": "Improved activity"}]}, {"substance": "Ac-RXRRBRRS*S*RBRXR-G [Peptide 67]", "values": [{"measurement": "cell activity (SMN2 exon 7 inclusion)", "setting": "[1]", "result": "retained good activity in cells"}]}, {"substance": "Ac-RXRRBRRS*S*S* RBRXR-G [Peptide 68]", "values": [{"measurement": "cell activity (SMN2 exon 7 inclusion)", "setting": "[1]", "result": "retained good activity in cells"}]}, {"substance": "Ac-RXRRBRRXRRXRBRXRS*FL-G [Peptide 48]", "values": [{"measurement": "cell activity (SMN2 exon 7 inclusion) relative to peptide 14", "setting": "[1]", "result": "almost as active as the first peptide"}]}, {"substance": "Ac-RXRRBRRXRS*FRXRBRXR-G [Peptide 43]", "values": [{"measurement": "cell activity (SMN2 exon 7 inclusion) relative to peptide 14", "setting": "[1]", "result": "only a slightly reduced activity"}]}, {"substance": "Ac-RXRRBRRXRS*RXRBRXR-G [Peptide 44]", "values": [{"measurement": "cell activity (SMN2 exon 7 inclusion) relative to peptide 14", "setting": "[1]", "result": "no significant effect on cell activity"}]}, {"substance": "Ac-RXRRBRRXRYQFLIRXRBRXR-B [Peptide 1]", "values": [{"measurement": "full-length SMN2 transcripts, mean expression level, Brainstem", "setting": "human SMN2-gene", "result": "1.48***"}, {"measurement": "full-length SMN2 transcripts, mean expression level, Cerebellum", "setting": "human SMN2-gene", "result": "1.25*"}, {"measurement": "full-length SMN2 transcripts, mean expression level, Cortex", "setting": "human SMN2-gene", "result": "1.29**"}, {"measurement": "full-length SMN2 transcripts, mean expression level, Liver", "setting": "human SMN2-gene", "result": 2.81}, {"measurement": "full-length SMN2 transcripts, mean expression level, Gastroc", "setting": "human SMN2-gene", "result": "3.03***"}, {"measurement": "full-length SMN2 transcripts, mean expression level, Quad", "setting": "human SMN2-gene", "result": "3.37***"}, {"measurement": "full-length SMN2 transcripts, mean expression level, TA", "setting": "human SMN2-gene", "result": "3.30***"}, {"measurement": "full-length SMN2 transcripts, mean expression level, Cervical", "setting": "human SMN2-gene", "result": "1.50***"}, {"measurement": "full-length SMN2 transcripts, mean expression level, Lumbar", "setting": "human SMN2-gene", "result": "1.28***"}, {"measurement": "full-length SMN2 transcripts, mean expression level, Thoracic", "setting": "human SMN2-gene", "result": "1.45***"}]}, {"substance": "Ac-RXRRBRRYQFLIRBRXR-B [Peptide 4]", "values": [{"measurement": "full-length SMN2 transcripts, mean expression level, Brainstem", "setting": "human SMN2-gene", "result": 0.98}, {"measurement": "full-length SMN2 transcripts, mean expression level, Cerebellum", "setting": "human SMN2-gene", "result": 0.96}, {"measurement": "full-length SMN2 transcripts, mean expression level, Cortex", "setting": "human SMN2-gene", "result": 1.1}, {"measurement": "full-length SMN2 transcripts, mean expression level, Liver", "setting": "human SMN2-gene", "result": 3.26}, {"measurement": "full-length SMN2 transcripts, mean expression level, Gastroc", "setting": "human SMN2-gene", "result": "3.64****"}, {"measurement": "full-length SMN2 transcripts, mean expression level, Quad", "setting": "human SMN2-gene", "result": "2.70****"}, {"measurement": "full-length SMN2 transcripts, mean expression level, TA", "setting": "human SMN2-gene", "result": "4.23****"}, {"measurement": "full-length SMN2 transcripts, mean expression level, Cervical", "setting": "human SMN2-gene", "result": "1.14*"}, {"measurement": "full-length SMN2 transcripts, mean expression level, Lumbar", "setting": "human SMN2-gene", "result": 1}, {"measurement": "full-length SMN2 transcripts, mean expression level, Thoracic", "setting": "human SMN2-gene", "result": 1.12}]}, {"substance": "Ac-RXRRBRRZS*RBRXR-B [Peptide 73]", "values": [{"measurement": "cell activity (SMN2 exon 7 inclusion) at low doses", "setting": "[1]; third screen, FIG. 6", "result": "good activity at low doses"}, {"measurement": "cell activity (SMN2 exon 7 inclusion) relative to S* peptide", "setting": "[1]; third screen", "result": "greatly improved alteration in activity levels"}]}, {"substance": "Ac-RXRRS*RRBRBRXR-G [Peptide 58]", "values": [{"measurement": "cell activity (SMN2 exon 7 inclusion)", "setting": "[1]", "result": "no significant alteration in activity levels"}]}, {"substance": "Ac-RXRXRS*RXRXR-G [Peptide 71]", "values": [{"measurement": "cell activity (SMN2 exon 7 inclusion)", "setting": "[1]", "result": "remarkably good activity"}]}]}
